# Source: patent publication US10045530B2, “Agricultural pheromone compositions comprising positional isomers” (PROVIVI, INC., priority 2015, dated 2018)
# Where two headings read alike, the source gives them in different places.
# Experiments:
# alkB2 Gordonia sp TF6 = conditions: terminal hydroxylation; 100% relative activity obtained with hexane; cited from earlier work
# CYP52A3 = molecular target: T1, CYP52A3 (Candida maltosa, UniProt P16496); conditions: terminal hydroxylation; by alkane/FA chain length; cited from earlier work
# T1 sequence (P16496 2-523 limits assumed): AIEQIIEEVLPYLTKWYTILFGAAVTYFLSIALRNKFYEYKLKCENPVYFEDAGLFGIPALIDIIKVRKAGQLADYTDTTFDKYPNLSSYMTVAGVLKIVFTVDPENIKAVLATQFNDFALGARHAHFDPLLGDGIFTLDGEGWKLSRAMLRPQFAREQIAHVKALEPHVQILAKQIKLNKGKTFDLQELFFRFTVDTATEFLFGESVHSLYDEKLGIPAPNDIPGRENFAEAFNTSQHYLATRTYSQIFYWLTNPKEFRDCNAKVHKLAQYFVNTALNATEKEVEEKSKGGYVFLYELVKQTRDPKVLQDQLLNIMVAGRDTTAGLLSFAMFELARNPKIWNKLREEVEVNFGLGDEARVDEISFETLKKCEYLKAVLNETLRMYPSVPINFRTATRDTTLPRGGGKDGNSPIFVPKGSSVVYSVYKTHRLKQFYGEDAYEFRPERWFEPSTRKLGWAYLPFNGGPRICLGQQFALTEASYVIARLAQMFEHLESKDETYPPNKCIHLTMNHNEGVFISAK
# CYP52A4 = molecular target: T2, CYP52A4 (Candida maltosa, UniProt P16141); conditions: terminal hydroxylation; by alkane/FA chain length; cited from earlier work
# T2 sequence (P16141 1-538): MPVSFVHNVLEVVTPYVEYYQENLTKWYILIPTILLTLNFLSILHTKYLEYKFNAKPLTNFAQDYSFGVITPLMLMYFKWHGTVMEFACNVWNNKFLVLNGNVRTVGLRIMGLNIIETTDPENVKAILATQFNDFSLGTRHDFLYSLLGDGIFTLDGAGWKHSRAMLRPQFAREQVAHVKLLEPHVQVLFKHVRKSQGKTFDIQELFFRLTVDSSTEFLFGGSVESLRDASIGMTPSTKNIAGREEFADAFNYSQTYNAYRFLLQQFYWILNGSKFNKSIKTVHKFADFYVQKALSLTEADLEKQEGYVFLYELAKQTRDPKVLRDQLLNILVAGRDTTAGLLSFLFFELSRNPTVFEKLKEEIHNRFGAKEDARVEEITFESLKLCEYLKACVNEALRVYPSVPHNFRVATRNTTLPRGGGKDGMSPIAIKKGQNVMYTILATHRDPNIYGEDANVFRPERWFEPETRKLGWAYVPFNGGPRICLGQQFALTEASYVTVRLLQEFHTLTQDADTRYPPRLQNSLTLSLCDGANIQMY
# LadA = molecular target: T3, LadA (Geobacillus thermodenitrificans, UniProt A4IU28); conditions: terminal hydroxylation; by alkane/FA chain length; cited from earlier work
# T3 sequence (A4IU28 1-440): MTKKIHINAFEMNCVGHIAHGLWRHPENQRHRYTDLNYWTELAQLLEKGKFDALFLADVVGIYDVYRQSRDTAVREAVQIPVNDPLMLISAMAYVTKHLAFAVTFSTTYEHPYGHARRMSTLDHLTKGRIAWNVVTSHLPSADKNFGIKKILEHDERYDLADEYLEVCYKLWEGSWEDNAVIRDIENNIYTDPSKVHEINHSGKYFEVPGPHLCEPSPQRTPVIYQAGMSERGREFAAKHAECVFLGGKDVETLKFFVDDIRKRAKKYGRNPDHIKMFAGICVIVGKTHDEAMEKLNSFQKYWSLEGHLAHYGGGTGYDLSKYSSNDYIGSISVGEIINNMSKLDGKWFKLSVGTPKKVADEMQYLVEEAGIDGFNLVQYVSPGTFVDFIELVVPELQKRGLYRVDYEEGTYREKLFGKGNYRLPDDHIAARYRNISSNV
# CYP153A P. sp. = conditions: cited from earlier work
# AlkB P. putida GPo1 = molecular target: T4, AlkB P. putida GPo1 (Ectopseudomonas oleovorans, UniProt P12691); conditions: terminal hydroxylation; by alkane/FA chain length; cited from earlier work
# T4 sequence (P12691 1-401): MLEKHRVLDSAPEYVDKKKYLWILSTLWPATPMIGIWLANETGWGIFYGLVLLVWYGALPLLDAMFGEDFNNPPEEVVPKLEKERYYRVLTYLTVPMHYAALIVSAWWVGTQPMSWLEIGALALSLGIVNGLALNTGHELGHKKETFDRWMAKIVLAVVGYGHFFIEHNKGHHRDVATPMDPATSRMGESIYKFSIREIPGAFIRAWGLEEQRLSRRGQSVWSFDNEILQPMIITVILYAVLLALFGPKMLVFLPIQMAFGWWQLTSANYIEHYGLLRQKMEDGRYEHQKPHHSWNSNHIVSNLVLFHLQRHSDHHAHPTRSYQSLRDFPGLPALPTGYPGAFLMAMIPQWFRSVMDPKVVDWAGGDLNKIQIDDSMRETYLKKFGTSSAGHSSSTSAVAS
# CYP153A16 = conditions: cited from earlier work
# CYP153A6 = conditions: cited from earlier work
# Helicoverpa zea = experiment: Wind tunnel bioassay: upwind flight and lure location of male moths; format: in vivo; conditions: conclusions from 8.1-8.2
# Protocol: Four separate experiments were conducted with the moth Helicoverpa zea and its respective pheromone components (Z-11-hexadecenal, Z-9-hexadecenal). Further, the addition of Z-5-hexadecenal, the positional isomer of the natural insect Z-11-hexadecenal pheromone, was also added to the Z-11 and Z-9 blends and tested. Upwind flight and lure location of male moths were compared for: natural ratios of pheromone (97% Z-11-hexadecenal with 3% of Z-9-hexadecenal) with and without addition of the Z-5-hexadecenal positional isomer at various ratios.
# Moths (4-6 day-old males in second half of scotophase) were flown in a glass wind tunnel (120×30×30 cm). A fan pushed air into the wind tunnel at 0.4 m sec^−1 and a second fan exhausted air at a similar rate. To provide visual cues for navigation, the floor was covered with light colored construction paper on which small (2-5 cm) circles were drawn with marker (Experiment 1) or light colored circles that were cut from light colored construction paper were placed on the floor (Experiments 2-4). Lures were made with Soxhlet-extracted, grey-rubber septa from West. […]
# A moth in a release cage was held on a platform 20 cm above the floor for 15 s in the plume of pheromone and then released by turning open end of the cage toward upwind. […] Flights were recorded on video and data were collected from videos. […]
# CYP52A21 = conditions: cited from earlier work
# [1] = terminal hydroxylation, by alkane/FA chain length
SMILES,"Relative activity, alkB2 Gordonia sp TF6 (Fujii et al., 2004, Biosci. Biotechnol. Biochem. 68: 2171-2177) (alkB2 Gordonia sp TF6) [%]","Relative activity, CYP52A3 (Scheller et al., 1996, Arch. Biochem Biophys. 328: 245-254) (CYP52A3)","Relative activity, CYP52A4 (Scheller et al., 1996, Arch. Biochem Biophys. 328: 245-254) (CYP52A4)","Relative activity, LadA (Feng et al., 2007, Proc. Natl. Acad. Sci. U.S.A. 104: 5602-5607) (LadA)",further results
CCCCCCCCCCCC [C12],34,41,37,–,–
CCCCCCCCCCCCCCCCCCCCCCCC [C24],–,–,–,65,–
CCCCCCCCCCC [C11],48,–,–,–,"Relative activity, CYP153A P. sp. (Scheps et al., 2011, Org. Biomol. Chem. 9: 6727-6733) (CYP153A P. sp.): <6; Relative activity, AlkB P. putida GPo1 (Vanbeilen et al., 1994, Enzyme Microb. Technol. 16: 904-911) (AlkB P. putida GPo1): 6; Relative activity, CYP153A16 (Scheps et al., 2011, Org. Biomol. Chem. 9: 6727-6733) (CYP153A16): <8; Relative activity, CYP153A6 (Funhoff et al., 2006, J. Bacteriol. 188: 5220-5227) (CYP153A6): 1"
CCCCCCCCCCCCCCCCCC(=O)O [C18 FA (Stearic)],–,30,1,–,–
CCCCCCCCCCCCCCCCCC [C18],–,48,20,78,–
CCCCCCCCCCCCCCCCCCCCCC [C22],–,–,–,74,–
CCCCCCCCCCCCCCCC [C16],–,100,33,100,–
CCCCCCCCCCCCCCC [C15],–,–,–,83,–
"CCCCCCCCCC/C=C\CCCC=O [Z-5-hexadecedenal, Z-5-hexadecenal]",–,–,–,–,upwind flight response (Helicoverpa zea): triggers a similar upwind flight response
CCCCCCCCC [C9],63,–,–,–,"Relative activity, CYP153A P. sp. (Scheps et al., 2011, Org. Biomol. Chem. 9: 6727-6733) (CYP153A P. sp.): 69; Relative activity, AlkB P. putida GPo1 (Vanbeilen et al., 1994, Enzyme Microb. Technol. 16: 904-911) (AlkB P. putida GPo1): 100; Relative activity, CYP153A16 (Scheps et al., 2011, Org. Biomol. Chem. 9: 6727-6733) (CYP153A16): 29; Relative activity, CYP153A6 (Funhoff et al., 2006, J. Bacteriol. 188: 5220-5227) (CYP153A6): 82"
CCCCCCCCCC [C10],66,–,–,–,"Relative activity, CYP153A P. sp. (Scheps et al., 2011, Org. Biomol. Chem. 9: 6727-6733) (CYP153A P. sp.): 60; Relative activity, AlkB P. putida GPo1 (Vanbeilen et al., 1994, Enzyme Microb. Technol. 16: 904-911) (AlkB P. putida GPo1): 60; Relative activity, CYP153A16 (Scheps et al., 2011, Org. Biomol. Chem. 9: 6727-6733) (CYP153A16): 13; Relative activity, CYP153A6 (Funhoff et al., 2006, J. Bacteriol. 188: 5220-5227) (CYP153A6): 23"
CCCCCCCC [C8],72,–,–,–,"Relative activity, CYP153A P. sp. (Scheps et al., 2011, Org. Biomol. Chem. 9: 6727-6733) (CYP153A P. sp.): 100; Relative activity, AlkB P. putida GPo1 (Vanbeilen et al., 1994, Enzyme Microb. Technol. 16: 904-911) (AlkB P. putida GPo1): 95; Relative activity, CYP153A16 (Scheps et al., 2011, Org. Biomol. Chem. 9: 6727-6733) (CYP153A16): 100; Relative activity, CYP153A6 (Funhoff et al., 2006, J. Bacteriol. 188: 5220-5227) (CYP153A6): 100"
CCCCCCCCCCCC(=O)O [C12 FA (lauric)],–,20,100,–,"Relative activity, CYP52A21 (Kim et al., 2007, Arch. Biochem. Biophys. 464: 213-220) (CYP52A21; [1]): 100"
CCCCCCCCCCCCCCCC(=O)O [C16 FA (Palmetic)],–,35,18,–,"Relative activity, CYP52A21 (Kim et al., 2007, Arch. Biochem. Biophys. 464: 213-220) (CYP52A21; [1]): 29"
CCCCCCCCCCCCCC(=O)O [C14 FA (Myristic)],–,–,–,–,"Relative activity, CYP52A21 (Kim et al., 2007, Arch. Biochem. Biophys. 464: 213-220) (CYP52A21): 86"
